In ChEMBL document CHEMBL3872220, “Amphiphilic xanthones as a potent chemical entity of anti-mycobacterial agents with membrane-targeting properties” (Eur J Med Chem, 2016) one finds Activity data, which are given here for one molecule.

The first test concerns Mycobacterium tuberculosis variant bovis. Briefly: Antimycobacterial activity against Mycobacterium bovis BCG ATCC 35734 assessed as ATP leakage by measuring extracellular ATP at 2 times MIC measured at 9 hrs post dose by luciferase reporter gene assay. The format is functional, Mycobacterium tuberculosis variant bovis BCG.
For the molecule `CCCN(CCC)CCCCOc1cc2oc3cc(OCCCCN(CCC)CCC)c(OC)c(CC=C(C)C)c3c(=O)c2c(O)c1CC=C(C)C`, the Activity is on record as 75.3%.

The test system is the same in another test. The test can be described thus: Antimycobacterial activity against Mycobacterium bovis BCG ATCC 35734 assessed as ATP leakage by measuring intracellular ATP at 4 times MIC measured at 24 hrs post dose by luciferase reporter gene assay. The format is functional, Mycobacterium tuberculosis variant bovis BCG. For orientation: Reporter assays use an easily measured gene product as a stand-in for the process of interest.
As for `CCCN(CCC)CCCCOc1cc2oc3cc(OCCCCN(CCC)CCC)c(OC)c(CC=C(C)C)c3c(=O)c2c(O)c1CC=C(C)C`, the Activity came out at 14.8%.

The test system is the same in another test. The test can be described thus: Antimycobacterial activity against Mycobacterium bovis BCG ATCC 35734 assessed as ATP leakage by measuring intracellular ATP at 4 times MIC measured immediatey after addition of compounds by luciferase reporter gene assay. The format is functional, Mycobacterium tuberculosis variant bovis BCG.
With `CCCN(CCC)CCCCOc1cc2oc3cc(OCCCCN(CCC)CCC)c(OC)c(CC=C(C)C)c3c(=O)c2c(O)c1CC=C(C)C`, the Activity was found to be 90.6%.

A further test shares this test system. Briefly: Antimycobacterial activity against Mycobacterium bovis BCG ATCC 35734 assessed as ATP leakage by measuring extracellular ATP at 1 MIC measured at 1 hr post dose by luciferase reporter gene assay. The format is functional, Mycobacterium tuberculosis variant bovis BCG.
`CCCN(CCC)CCCCOc1cc2oc3cc(OCCCCN(CCC)CCC)c(OC)c(CC=C(C)C)c3c(=O)c2c(O)c1CC=C(C)C`: the Activity worked out at 13.2%.

Another test shares this test system. Briefly: Antimycobacterial activity against Mycobacterium bovis BCG ATCC 35734 assessed as ATP leakage by measuring intracellular ATP at 4 times MIC measured at 1 hr post dose by luciferase reporter gene assay. The format is functional, Mycobacterium tuberculosis variant bovis BCG.
On to `CCCN(CCC)CCCCOc1cc2oc3cc(OCCCCN(CCC)CCC)c(OC)c(CC=C(C)C)c3c(=O)c2c(O)c1CC=C(C)C`, for which the Activity worked out at 83.2%.

For a further test the test system is unchanged. The test can be described thus: Antimycobacterial activity against Mycobacterium bovis BCG ATCC 35734 assessed as ATP leakage by measuring intracellular ATP at 1 MIC measured at 1 hr post dose by luciferase reporter gene assay. The format is functional, Mycobacterium tuberculosis variant bovis BCG.
For `CCCN(CCC)CCCCOc1cc2oc3cc(OCCCCN(CCC)CCC)c(OC)c(CC=C(C)C)c3c(=O)c2c(O)c1CC=C(C)C`, the Activity came out at 86.8%.

The test system is the same in another test. The test can be described thus: Antimycobacterial activity against Mycobacterium bovis BCG ATCC 35734 assessed as ATP leakage by measuring intracellular ATP at 0.5 times MIC measured at 24 hrs post dose by luciferase reporter gene assay. The format is functional, Mycobacterium tuberculosis variant bovis BCG.
For the molecule `CCCN(CCC)CCCCOc1cc2oc3cc(OCCCCN(CCC)CCC)c(OC)c(CC=C(C)C)c3c(=O)c2c(O)c1CC=C(C)C`, the Activity is recorded as 84.4%.

A further test shares this test system. The test can be described thus: Antimycobacterial activity against Mycobacterium bovis BCG ATCC 35734 assessed as ATP leakage by measuring intracellular ATP at 4 times MIC measured at 9 hrs post dose by luciferase reporter gene assay. The format is functional, Mycobacterium tuberculosis variant bovis BCG.
For `CCCN(CCC)CCCCOc1cc2oc3cc(OCCCCN(CCC)CCC)c(OC)c(CC=C(C)C)c3c(=O)c2c(O)c1CC=C(C)C`, the Activity is listed as 16%.

For the next test the test system is unchanged. The test can be described thus: Induction of membrane integrity impairment in Mycobacterium bovis BCG ATCC 35734 assessed as pH shift at 60 uM measured after 3 hrs by CMFDA dye based fluorescence spectroscopic method relative to control. The format is functional, Mycobacterium tuberculosis variant bovis BCG.
For `CCCN(CCC)CCCCOc1cc2oc3cc(OCCCCN(CCC)CCC)c(OC)c(CC=C(C)C)c3c(=O)c2c(O)c1CC=C(C)C`, the Activity was 61.6%.

The next test shares this test system. The test can be described thus: Antimycobacterial activity against Mycobacterium bovis BCG ATCC 35734 assessed as ATP leakage by measuring extracellular ATP at 4 times MIC measured at 1 hr post dose by luciferase reporter gene assay. The format is functional, Mycobacterium tuberculosis variant bovis BCG.
With `CCCN(CCC)CCCCOc1cc2oc3cc(OCCCCN(CCC)CCC)c(OC)c(CC=C(C)C)c3c(=O)c2c(O)c1CC=C(C)C`, the Activity stood at 16.8%.

The test system is the same in the next test. Briefly: Antimycobacterial activity against Mycobacterium bovis BCG ATCC 35734 assessed as ATP leakage by measuring extracellular ATP at 4 times MIC measured at 6 hrs post dose by luciferase reporter gene assay. The format is functional, Mycobacterium tuberculosis variant bovis BCG.
As for `CCCN(CCC)CCCCOc1cc2oc3cc(OCCCCN(CCC)CCC)c(OC)c(CC=C(C)C)c3c(=O)c2c(O)c1CC=C(C)C`, the Activity was determined as 69.7%.

Another test shares this test system. Briefly: Antimycobacterial activity against Mycobacterium bovis BCG ATCC 35734 assessed as ATP leakage by measuring extracellular ATP at 0.5 times MIC measured at 3 hrs post dose by luciferase reporter gene assay. The format is functional, Mycobacterium tuberculosis variant bovis BCG.
Regarding `CCCN(CCC)CCCCOc1cc2oc3cc(OCCCCN(CCC)CCC)c(OC)c(CC=C(C)C)c3c(=O)c2c(O)c1CC=C(C)C`, the Activity came to 20.1%.

A further test has the same test system. The test can be described thus: Antimycobacterial activity against Mycobacterium bovis BCG ATCC 35734 assessed as ATP leakage by measuring intracellular ATP at 0.5 times MIC measured at 9 hrs post dose by luciferase reporter gene assay. The format is functional, Mycobacterium tuberculosis variant bovis BCG.
Regarding `CCCN(CCC)CCCCOc1cc2oc3cc(OCCCCN(CCC)CCC)c(OC)c(CC=C(C)C)c3c(=O)c2c(O)c1CC=C(C)C`, the Activity was determined as 74.6%.

The next test shares this test system. Briefly: Antimycobacterial activity against Mycobacterium bovis BCG ATCC 35734 assessed as ATP leakage by measuring extracellular ATP at 1 MIC measured at 3 hrs post dose by luciferase reporter gene assay. The format is functional, Mycobacterium tuberculosis variant bovis BCG.
Take `CCCN(CCC)CCCCOc1cc2oc3cc(OCCCCN(CCC)CCC)c(OC)c(CC=C(C)C)c3c(=O)c2c(O)c1CC=C(C)C`: the Activity worked out at 24.2%.

For a further test the test system is unchanged. Briefly: Antimycobacterial activity against Mycobacterium bovis BCG ATCC 35734 assessed as ATP leakage by measuring intracellular ATP at 2 times MIC measured at 6 hrs post dose by luciferase reporter gene assay. The format is functional, Mycobacterium tuberculosis variant bovis BCG.
As to `CCCN(CCC)CCCCOc1cc2oc3cc(OCCCCN(CCC)CCC)c(OC)c(CC=C(C)C)c3c(=O)c2c(O)c1CC=C(C)C`, the Activity worked out at 36.8%.

For a further test the test system is unchanged. The test can be described thus: Antimycobacterial activity against Mycobacterium bovis BCG ATCC 35734 assessed as ATP leakage by measuring intracellular ATP at 2 times MIC measured at 1 hr post dose by luciferase reporter gene assay. The format is functional, Mycobacterium tuberculosis variant bovis BCG.
`CCCN(CCC)CCCCOc1cc2oc3cc(OCCCCN(CCC)CCC)c(OC)c(CC=C(C)C)c3c(=O)c2c(O)c1CC=C(C)C`: the Activity was 89.9%.
